Source: PubChem BioAssay (NCI)
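Briefly, cells in 96-well plates were exposed to five compound concentrations for 48 h, and endpoints were estimated by linear interpolation. GI50: concentration for 50% inhibition of growth. The concentration for full growth arrest is given as TGI.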

Experiments:
Test in all cases: NCI anticancer screen, dose series, 48 h
NCI-H23 lung = test system: NCI-H23 lung
NCI-H460 lung = test system: NCI-H460 lung
NCI-H522 lung = test system: NCI-H522 lung
NCI/ADR-RES ovarian = test system: NCI/ADR-RES ovarian
OVCAR-3 ovarian = test system: OVCAR-3 ovarian
OVCAR-4 ovarian = test system: OVCAR-4 ovarian
OVCAR-5 ovarian = test system: OVCAR-5 ovarian
OVCAR-8 ovarian = test system: OVCAR-8 ovarian
PC-3 prostate = test system: PC-3 prostate
RPMI-8226 leukemia = test system: RPMI-8226 leukemia
RXF 393 renal = test system: RXF 393 renal
SF-268 CNS = test system: SF-268 CNS
SF-295 CNS = test system: SF-295 CNS
SF-539 CNS = test system: SF-539 CNS
SK-MEL-2 melanoma = test system: SK-MEL-2 melanoma
SK-MEL-28 melanoma = test system: SK-MEL-28 melanoma
SK-MEL-5 melanoma = test system: SK-MEL-5 melanoma
SK-OV-3 ovarian = test system: SK-OV-3 ovarian
SN12C renal = test system: SN12C renal
SNB-19 CNS = test system: SNB-19 CNS
SNB-75 CNS = test system: SNB-75 CNS
SR leukemia = test system: SR leukemia
SW-620 colon = test system: SW-620 colon
T-47D breast = test system: T-47D breast
TK-10 renal = test system: TK-10 renal
U251 CNS = test system: U251 CNS
UACC-257 melanoma = test system: UACC-257 melanoma
UACC-62 melanoma = test system: UACC-62 melanoma
UO-31 renal = test system: UO-31 renal

In the case of `O=C(O)c1nc(NCc2nc3cc(Cl)ccc3o2)n[nH]1`, the TGI (NCI-H23 lung) is reported as greater than 100 µM, the GI50 (NCI-H460 lung) is reported as greater than 100 µM and the TGI (NCI-H460 lung) is reported as greater than 100 µM. It also gave a GI50 (NCI-H522 lung) greater than 100 µM, a TGI (NCI-H522 lung) greater than 100 µM and a GI50 (NCI/ADR-RES ovarian) greater than 100 µM. It also gave a TGI (NCI/ADR-RES ovarian) greater than 100 µM, a GI50 (OVCAR-3 ovarian) greater than 100 µM and a TGI (OVCAR-3 ovarian) greater than 100 µM. It also gave a GI50 (OVCAR-4 ovarian) greater than 100 µM, a TGI (OVCAR-4 ovarian) greater than 100 µM and a GI50 (OVCAR-5 ovarian) greater than 100 µM. The TGI (OVCAR-5 ovarian) was greater than 100 µM, the GI50 (OVCAR-8 ovarian) was greater than 100 µM and the TGI (OVCAR-8 ovarian) was greater than 100 µM. For the same compound, the GI50 (PC-3 prostate) was greater than 100 µM, the TGI (PC-3 prostate) was greater than 100 µM and the GI50 (RPMI-8226 leukemia) was greater than 100 µM. It also gave a TGI (RPMI-8226 leukemia) greater than 100 µM, a GI50 (RXF 393 renal) greater than 100 µM and a TGI (RXF 393 renal) greater than 100 µM. The GI50 (SF-268 CNS) was greater than 100 µM, the TGI (SF-268 CNS) was greater than 100 µM and the GI50 (SF-295 CNS) was greater than 100 µM. For the same compound, the TGI (SF-295 CNS) was greater than 100 µM, the GI50 (SF-539 CNS) was greater than 100 µM and the TGI (SF-539 CNS) was greater than 100 µM. The GI50 (SK-MEL-2 melanoma) was greater than 100 µM, the TGI (SK-MEL-2 melanoma) was greater than 100 µM and the GI50 (SK-MEL-28 melanoma) was greater than 100 µM. For the same compound, the TGI (SK-MEL-28 melanoma) was greater than 100 µM, the GI50 (SK-MEL-5 melanoma) was greater than 100 µM and the TGI (SK-MEL-5 melanoma) was greater than 100 µM. For the same compound, the GI50 (SK-OV-3 ovarian) was greater than 100 µM, the TGI (SK-OV-3 ovarian) was greater than 100 µM and the GI50 (SN12C renal) was greater than 100 µM. The TGI (SN12C renal) was greater than 100 µM, the GI50 (SNB-19 CNS) was greater than 100 µM and the TGI (SNB-19 CNS) was greater than 100 µM. The GI50 (SNB-75 CNS) was greater than 100 µM, the TGI (SNB-75 CNS) was greater than 100 µM and the GI50 (SR leukemia) was greater than 100 µM. The TGI (SR leukemia) was greater than 100 µM, the GI50 (SW-620 colon) was greater than 100 µM and the TGI (SW-620 colon) was greater than 100 µM. For the same compound, the GI50 (T-47D breast) was greater than 100 µM, the TGI (T-47D breast) was greater than 100 µM and the GI50 (TK-10 renal) was greater than 100 µM. For the same compound, the TGI (TK-10 renal) was greater than 100 µM, the GI50 (U251 CNS) was greater than 100 µM and the TGI (U251 CNS) was greater than 100 µM. For the same compound, the GI50 (UACC-257 melanoma) was greater than 100 µM, the TGI (UACC-257 melanoma) was greater than 100 µM and the GI50 (UACC-62 melanoma) was greater than 100 µM. The TGI (UACC-62 melanoma) was greater than 100 µM, the GI50 (UO-31 renal) was greater than 100 µM and the TGI (UO-31 renal) was greater than 100 µM.
